system: HIV-IIIb; experiment: Antiviral assay in MT-2 cells infected with HIV-IIIb; assay type: cell-based; conditions: Human immunodeficiency virus 1, IIIB, MT2, 120 h, MT-2 cells infected with HIV-IIIb, m.o.i. 0.01, 10% FBS, 5 days at 37° C., CellTiter-Glo chemiluminescence; read-out: EC50 in MT-2 cells

EC50 | Compound
37 nM | CNC(=O)[C@@H]1Cn2c(=O)c(C(=O)NCCOC)c(O)c3ncc(Cc4ccc(F)cc4)c(c32)O1 [Example 164]
2.7 nM | CC(C)(C#N)CNC(=O)C1=Cn2c(=O)c(C(=O)NC3CC3)c(O)c3ncc(Cc4ccc(F)cc4)c(c32)O1 [Example 135]
6.7 nM | CNC(=O)C(=O)NC[C@@H]1Cn2c(=O)c(C(=O)NC)c(O)c3ncc(Cc4ccc(F)cc4)c(c32)O1 [Example 199]
5.5 nM | O=C(NCCc1ncc[nH]1)c1c(O)c2ncc(Cc3ccc(F)cc3)c3c2n(c1=O)CC(F)(F)CN3 [Example 146]
4 nM | N#CCNC(=O)c1c(O)c2ncc(Cc3ccc(F)cc3)c3c2n(c1=O)CC(F)(F)CN3 [Example 143]
1.2 nM | CNC(=O)c1c(O)c2ncc(Cc3ccc(F)cc3)c3c2n(c1=O)C[C@@H](CC#N)O3 [Example 181]
6 nM | COCCNC(=O)c1c(O)c2ncc(Cc3ccc(F)cc3)c3c2n(c1=O)C=C(C(=O)NCC1(O)CC1)O3 [Example 106]
4 nM | CNC(=O)c1c(O)c2ncc(Cc3ccc(F)cc3)c3c2n(c1=O)C[C@H](CO)O3 [A-69]
64 nM | CNC(=O)c1c(O)c2ncc(Cc3ccc(F)cc3)c3c2n(c1=O)C=C(C(=O)NCC(C)(C)NC(=O)c1nnc(C)o1)O3 [Example 122]

— patent publication US7998950B2, “Antiviral compounds” (Gilead Sciences, Inc., priority 2008, dated 2011)
